Drawing on ChEMBL document CHEMBL2424561, “Discovery of new antitubercular agents by combining pyrazoline and benzoxazole pharmacophores: design, synthesis and insights into the binding interactions” (2013), this text covers MIC for 25 molecules.

By MIC is commonly meant the smallest concentration in the dilution series that meets the test's criterion for growth inhibition. Read a high MIC as a need for much substance.

SMILES strings stand for the structures. Values after ≈ are worked out from the molar mass of the structure shown.

The assay concerns Mycobacterium tuberculosis. As to the kind of experiment: Antitubercular activity against multidrug-resistant Mycobacterium tuberculosis after 6 weeks. Format: functional.
Take `COc1cc(C2CC(c3ccccc3)=NN2C(C)=O)cc2nc(S)oc12` (stereo not given): 12.5 µg/mL (≈ 34 µM) was the least that counted as inhibitory (MIC). For the molecule `CC(=O)N1N=C(c2ccccc2Br)CC1c1ccc2oc(S)nc2c1` (stereo not given), 6.25 µg/mL (≈ 15 µM) was the least that counted as inhibitory (MIC). `CC(=O)N1N=C(c2ccccc2Br)CC1c1cc(Cl)c2oc(S)nc2c1` (stereo not given): it took 12.5 µg/mL (≈ 27.7 µM) to inhibit growth (MIC). `COc1cc(C2CC(c3ccccc3Br)=NN2C(C)=O)cc(N)c1O` (stereo not given): the MIC was 3.25 µg/mL (≈ 8.04 µM). The value for `CC(=O)N1N=C(c2ccccc2Br)CC1c1ccc2oc(N)nc2c1` (stereo not given) was 12.5 µg/mL (≈ 31.3 µM); that for `COc1cc(C2CC(c3ccc(Cl)cc3Cl)=NN2C(C)=O)cc2nc(S)oc12` (stereo not given) was 12.5 µg/mL (≈ 28.6 µM). For the molecule `CC(=O)N1N=C(c2ccccc2)CC1c1cc(N)c(O)c(Cl)c1` (stereo not given), the MIC worked out at 25 µg/mL (≈ 75.8 µM). The value for `COc1cc(C2CC(c3ccc(F)cc3)=NN2C(C)=O)cc(N)c1O` (stereo not given) was 25 µg/mL (≈ 72.8 µM); that for `CC(=O)N1N=C(c2ccccc2)CC1c1ccc2oc(N)nc2c1` (stereo not given) was 25 µg/mL (≈ 78 µM).

`COc1cc(C2CC(c3ccccc3Br)=NN2C(C)=O)cc2nc(S)oc12` (stereo not given) had an MIC of 25 µg/mL (≈ 56 µM). For the molecule `COc1cc(C2CC(c3ccc(Cl)cc3Cl)=NN2C(C)=O)cc(N)c1O` (stereo not given), 12.5 µg/mL (≈ 31.7 µM) was the least that counted as inhibitory (MIC).

Molecule `COc1cc(C2CC(c3ccc(Cl)cc3Cl)=NN2C(C)=O)cc2nc(N)oc12` (stereo not given) came in with an MIC of 12.5 µg/mL (≈ 29.8 µM).

With `COc1cc(C2CC(c3ccccc3)=NN2C(C)=O)cc2nc(N)oc12` (stereo not given), the MIC worked out at 6.25 µg/mL (≈ 17.8 µM).

Molecule `CC(=O)N1N=C(c2ccccc2)CC1c1ccc2oc(S)nc2c1` (stereo not given) showed an MIC of 25 µg/mL (≈ 74.1 µM). Turning to `CC(=O)N1N=C(c2ccccc2)CC1c1cc(Cl)c2oc(N)nc2c1` (stereo not given), 25 µg/mL (≈ 70.5 µM) was the least that counted as inhibitory (MIC). Regarding `CC(=O)N1N=C(c2ccccc2Br)CC1c1ccc(O)c(N)c1` (stereo not given), the MIC amounted to 12.5 µg/mL (≈ 33.4 µM).

Regarding `CC(=O)N1N=C(c2ccccc2Br)CC1c1cc(Cl)c2oc(N)nc2c1` (stereo not given), it took 25 µg/mL (≈ 57.6 µM) to inhibit growth (MIC). `CC(=O)N1N=C(c2ccccc2)CC1c1cc(Cl)c2oc(S)nc2c1` (stereo not given) returned an MIC of 25 µg/mL (≈ 67.2 µM). As to `CC(=O)N1N=C(c2ccccc2)CC1c1ccc(O)c(N)c1` (stereo not given), the MIC was found to be 25 µg/mL (≈ 84.6 µM). The molecule `COc1cc(C2CC(c3ccccc3)=NN2C(C)=O)cc(N)c1O` (stereo not given) displayed an MIC of 25 µg/mL (≈ 76.8 µM). `CC(=O)N1N=C(c2ccccc2Br)CC1c1cc(N)c(O)c(Cl)c1` (stereo not given) came in with an MIC of 25 µg/mL (≈ 61.2 µM). `NNC(=O)c1ccncc1` [ISONIAZID] registered a minimum inhibitory concentration (MIC) of 6.25 µg/mL (≈ 45.6 µM). With `COc1cc(C2CC(c3ccc(F)cc3)=NN2C(C)=O)cc2nc(S)oc12` (stereo not given), it took 6.25 µg/mL (≈ 16.2 µM) to inhibit growth (MIC).

In turn, `COc1cc(C2CC(c3ccc(F)cc3)=NN2C(C)=O)cc2nc(N)oc12` (stereo not given) registered an MIC of 25 µg/mL (≈ 67.9 µM).

In turn, `COc1cc(C2CC(c3ccccc3Br)=NN2C(C)=O)cc2nc(N)oc12` (stereo not given) returned an MIC of 25 µg/mL (≈ 58.2 µM).
